Test results as given in paper PMC7855594 (Cell chemical biology, 2020).

Experiments:
USP7 [1] = biological target: T1, USP7 (Homo sapiens, UniProt Q93009); assay type: biochemical
USP7 [2] = biological target: T1, USP7; assay type: biochemical; remark: listed apart in the source
USP7 [3] = biological target: T1, USP7; assay: purified enzyme biochemical assay; conditions: cited from earlier work

T1 sequence (Q93009 whole entry): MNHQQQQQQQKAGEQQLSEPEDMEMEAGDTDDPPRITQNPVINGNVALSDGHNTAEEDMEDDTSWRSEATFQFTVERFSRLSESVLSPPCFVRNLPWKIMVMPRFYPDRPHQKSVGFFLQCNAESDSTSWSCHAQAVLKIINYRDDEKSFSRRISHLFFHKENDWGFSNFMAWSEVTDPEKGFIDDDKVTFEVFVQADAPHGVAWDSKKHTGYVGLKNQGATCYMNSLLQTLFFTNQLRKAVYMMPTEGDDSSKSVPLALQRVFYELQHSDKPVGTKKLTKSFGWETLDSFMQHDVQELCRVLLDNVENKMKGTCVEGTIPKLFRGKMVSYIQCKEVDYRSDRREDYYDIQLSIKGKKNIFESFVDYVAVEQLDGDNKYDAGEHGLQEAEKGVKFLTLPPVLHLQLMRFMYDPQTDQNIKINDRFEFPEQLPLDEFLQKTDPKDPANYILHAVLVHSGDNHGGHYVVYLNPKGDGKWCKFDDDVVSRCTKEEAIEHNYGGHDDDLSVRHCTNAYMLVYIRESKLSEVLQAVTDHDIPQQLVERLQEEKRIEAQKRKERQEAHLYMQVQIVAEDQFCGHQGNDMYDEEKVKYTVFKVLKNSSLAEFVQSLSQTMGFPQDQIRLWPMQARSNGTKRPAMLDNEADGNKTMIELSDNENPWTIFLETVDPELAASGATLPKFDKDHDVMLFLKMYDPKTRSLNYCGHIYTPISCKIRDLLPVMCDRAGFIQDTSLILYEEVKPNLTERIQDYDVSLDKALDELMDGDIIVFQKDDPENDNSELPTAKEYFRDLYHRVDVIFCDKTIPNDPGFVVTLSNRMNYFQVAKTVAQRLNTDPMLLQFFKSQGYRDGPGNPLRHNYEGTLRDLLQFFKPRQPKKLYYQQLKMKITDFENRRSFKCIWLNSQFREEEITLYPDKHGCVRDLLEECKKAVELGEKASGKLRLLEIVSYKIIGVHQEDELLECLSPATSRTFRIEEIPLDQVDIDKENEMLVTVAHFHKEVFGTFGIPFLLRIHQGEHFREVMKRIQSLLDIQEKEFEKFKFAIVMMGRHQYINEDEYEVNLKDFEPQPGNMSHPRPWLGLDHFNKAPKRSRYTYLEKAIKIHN

CN1CCN(CCC(=O)Nc2ccc3c(=O)n(CC4(O)CCN(C(=O)[C@@H](CCCNC(=O)c5ccc6c(Cl)c7c(nc6c5)CCCC7)Cc5ccccc5)CC4)cnc3c2)CC1 [XL177A]
% inhibition at 1 μM (USP7 [1]): 100

C[C@H](CC(=O)N1CCC(O)(Cn2cnc3cc(NC(=O)CCN4CCN(C)CC4)ccc3c2=O)CC1)c1ccccc1 [XL188]
% inhibition at 10 μM (USP7 [2]): 100

C[C@@H](CC(=O)N1CCC(O)(Cn2cnc3cc(NC(=O)CCN4CCN(C)CC4)ccc3c2=O)CC1)c1ccccc1 [XL203C]
IC50 (USP7 [3]): 7 µM
